# Source: patent EP0000336A1, “N-benzylpyrimidinyl-amidines, process for their preparation and medicines containing them” (BASF Aktiengesellschaft, priority 1977, dated 1979)
# System: Streptococcus agalactiae 7941
# Assay: Aronson sepsis model in mice, sulfonamide potentiation compared with trimethoprim
# Assay type: in vivo
# Settings: female mice (groups of 30), lethal dose of Streptococcus agalactiae 7941; treated 2 h after infection with 300 mg 2-Sulfanilamido-4,5-dimethyloxazol + 60 mg test substance; survivors after 44 h divided by survivors of the group given 300 mg 2-Sulfanilamido-4,5-dimethyloxazol + 60 mg Trimethoprim
# Description: Verwendet man beispielsweise N-[4-Amino-5-(3,4,5-trimethoxybenzyl)-pyrimidin-2-yl]-acetamidsäureäthylester und Anilin als Ausgangsstoffe, so kann der Reaktionsverlauf durch folgendes Formelschema wiedergegeben werden: [drawing 7] 2um Wirksamkeitsnachweis wurden erfindungsgemäße Substanzen im Tierversuch am Modell der sogenannten Aronson-Sepsis, wobei mit Streptococcus agalactiae infiziert wird, geprüft und mit dem bekannten Trimethoprim verglichen. Hierzu wurden Gruppen von je 30 weiblichen Mäusen mit einer tödlichen Dosis von Streptococcus agalactiae 7941 infiziert und 2 Stunden nach der Infektion mit einer Mischung von 300 mg 2-Sulfanilamido-4,5-dimethyloxazol + 60 mg einer der erfindungsgemäßen Substanzen behandelt. Außer einer nicht behandelten Kontrollgruppe wurde eine zweite Gruppe mit dem als Referenzsubstanz dienenden Gemisch von 300 mg 2-Sulfanilamido-4,5-dimethyloxazol + 60 mg Trimethoprim behandelt. Nach 44 Stunden wurde die Zahl der überlebenden Tiere bestimmt und diese Zahl durch die Zahl der überlebenden aus der mit der Referenzsubstanz behandelten Gruppe dividiert. Der so erhaltene Zahlenwert (Trimethoprimfaktor) ist ein Maß für die Wirkung der erfindungsgemäßen Substanzen im Vergleich zum Trimethoprim. F = 2 bedeutet also, daß die Substanz doppelt so wirksam ist wie Trimethoprim. […]
smiles,measurement,value
COc1cc(Cc2cnc(N=C(C)N(C)C)nc2N)cc(OC)c1OC [Beispiel 1],F (Trimethoprimfaktor),"1,2"
